Data published in patent US20260091027A1, “STILBENE DERIVATIVES AS WELL AS PREPARATION METHOD THEREFOR AND USE THEREOF” (THEDERMA SHANGHAI CO., LTD., priority 2022, published 2026).

How the values were obtained:
[1] = Illumination stability experiment (HPLC content); format: physicochemical; details: visible light 5000 ± 500 lx, ultraviolet light 250 μW/cm^2
Protocol: Test Example 2. Illumination Stability Experiment
• Stability chamber, model: ICH-110L, Memmert, USA; • High performance liquid chromatograph (HPLC), model: 1260, Agilent.
• Detection wavelength: 220 nM, 254 nM • Chromatographic column: Agilent ZORBAX SB-C8 4.6×250 mm, 5 μm • Mobile phase A: water • Mobile phase B: acetonitrile • Flow rate: 1.0 mL/min • Column temperature: 35° C. • Injection volume: 10 μL
• 1. A test compound was weighed out and placed into the stability chamber; • 2. a light source was turned on, with visible light of 5000±500 lx and ultraviolet light of 250 μW/cm^2; • 3. sampling was performed at 0 h, 8 h, 24 h, and 72 h, and the sample was dissolved in an aqueous acetonitrile solution with a volume fraction of 50%; • 4. HPLC was used for detection, and the content was determined by using the area normalization method.

[2] = biological target: T1, AHR protein (Homo sapiens, UniProt P35869); assay: Luciferase reporter gene assay (AHR agonistic activity); format: cell-based; details: HepG2-Lucia AHR cells, 24 h incubation; read-out: Luciferase-labeled human hepatoma cells (HepG2-Lucia) AHR agonist EC50
T1 construct: Human hepatoma cells HepG2-Lucia expressing AHR and luciferase; host or cells: HepG2-Lucia AHR (human hepatoma)
T1 sequence (P35869 11-848): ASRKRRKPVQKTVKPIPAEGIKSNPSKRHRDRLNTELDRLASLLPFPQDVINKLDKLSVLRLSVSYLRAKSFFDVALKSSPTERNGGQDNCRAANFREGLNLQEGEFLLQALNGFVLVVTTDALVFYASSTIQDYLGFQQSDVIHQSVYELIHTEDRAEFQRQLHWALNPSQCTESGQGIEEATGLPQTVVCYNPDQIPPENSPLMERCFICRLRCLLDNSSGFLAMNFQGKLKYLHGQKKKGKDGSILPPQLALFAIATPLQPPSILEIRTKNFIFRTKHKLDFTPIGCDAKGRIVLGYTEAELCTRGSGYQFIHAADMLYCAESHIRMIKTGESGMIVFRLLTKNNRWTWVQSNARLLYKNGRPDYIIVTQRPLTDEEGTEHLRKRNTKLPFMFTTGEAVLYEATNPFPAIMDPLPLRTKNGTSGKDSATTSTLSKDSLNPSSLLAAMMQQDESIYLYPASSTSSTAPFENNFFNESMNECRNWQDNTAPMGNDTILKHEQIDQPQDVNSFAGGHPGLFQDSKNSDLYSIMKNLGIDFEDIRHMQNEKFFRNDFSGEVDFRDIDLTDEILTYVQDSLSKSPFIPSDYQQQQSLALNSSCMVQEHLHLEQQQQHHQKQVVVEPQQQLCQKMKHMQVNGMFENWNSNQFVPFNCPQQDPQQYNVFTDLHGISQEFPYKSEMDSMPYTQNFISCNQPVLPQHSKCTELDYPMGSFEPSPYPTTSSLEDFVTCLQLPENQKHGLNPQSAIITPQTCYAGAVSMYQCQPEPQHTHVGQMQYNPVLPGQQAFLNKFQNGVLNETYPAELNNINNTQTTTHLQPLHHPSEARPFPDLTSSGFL
Protocol: Luciferase Reporter Gene Assay
In this test example, a luciferase reporter gene assay was performed to assay the agonistic activity effect of the compounds of the present disclosure on AHR protein.
• Human hepatoma cells HepG2-Lucia expressing AHR and luciferase were purchased from InvivoGen with the catalog number of hpgl-ahr;
• 1. HepG2-Lucia AHR cells were cultured in an EMEM medium containing 10% inactivated fetal bovine serum, 1×NEAA, penicillin-streptomycin, and 100 μg/mL Zeocin (bleomycin). The culture temperature was 37° C. and the concentration of carbon dioxide was 5%. • 2. After the cells were grown to about 80% confluency, the cells were digested, centrifuged, resuspended, and counted. The cells were seeded into a 384-well plate at 40 μL/well. • 3. Different concentrations of the test compounds were added by using ECHO at 40 nL/well. • 4. The 384-well plate to which the compounds were added was incubated in the incubator for 24 h. • 5. The supernatant was collected, a QUANTI-Luc Gold detection reagent was added, and the luminescence signal values were read by using the multifunctional microplate reader.

Molecule | Liquid chromatography content (220 nM, %) ([1]; batch 1, 0 h) [%] | Liquid chromatography content (220 nM, %) ([1]; batch 1, 8 h) [%] | Liquid chromatography content (220 nM, %) ([1]; batch 1, 24 h) [%] | Liquid chromatography content (220 nM, %) ([1]; batch 1, 72 h) [%] | Liquid chromatography content (220 nM, %) ([1]; batch 2, 0 h) [%] | Liquid chromatography content (220 nM, %) ([1]; batch 2, 8 h) [%] | Liquid chromatography content (220 nM, %) ([1]; batch 2, 24 h) [%] | Liquid chromatography content (220 nM, %) ([1]; batch 2, 72 h) [%] | EC50 [2] [nM]
CC(C)c1c(O)cc(/C=C/c2ccccc2)cc1O [Benvitimod, reference compound] | 99.87 | 85.14 | 74.20 | 69.53 |  |  |  |  | 
CC(C)c1c(O)cc(/C=C/c2cccc(F)n2)cc1O [Comparative Example 1, reference compound] |  |  |  |  | 96.99 | 85.98 | 82.13 | 72.30 | 
CC(C)c1c(O)cc(/C=C/c2ccccc2)c(Cl)c1O [Compound 1, (E)-4-Chloro-2-isopropyl-5-styrylbenzene-1,3-diol] |  |  |  |  |  |  |  |  | 238
Cc1c(/C=C/c2ccccc2)cc(O)c(C(C)C)c1O [Compound 2, (E)-2-Isopropyl-4-methyl-5-styrylbenzene-1,3-diol] |  |  |  |  |  |  |  |  | 177
CC(C)c1c(O)cc(/C=C/c2ccccc2)c(F)c1O [Compound 3, (E)-4-Fluoro-2-isopropyl-5-styrylbenzene-1,3-diol] | 97.25 | 97.33 | 96.06 | 97.71 |  |  |  |  | 57
CC(C)c1c(O)cc(/C=C/c2ccccc2)c(Br)c1O [Compound 4, (E)-4-Bromo-2-isopropyl-5-styrylbenzene-1,3-diol] |  |  |  |  |  |  |  |  | 219
CC(C)c1c(O)cc(/C=C/c2ccc(F)cc2)c(F)c1O [Compound 5, (E)-4-Fluoro-5-(4-fluorostyryl)-2-isopropylbenzene-1,3-diol] |  |  |  |  | 99.30 | 98.80 | 99.22 | 99.06 | 6
CC(C)c1c(O)cc(/C=C/c2ccccc2F)c(F)c1O [Compound 6, (E)-4-Fluoro-5-(2-fluorostyryl)-2-isopropylbenzene-1,3-diol] |  |  |  |  | 98.31 | 98.37 | 98.27 | 98.68 | 10
CC(C)c1c(O)cc(/C=C/c2ncccc2F)c(F)c1O [Compound 7, (E)-4-Fluoro-5-[2-(3-fluoropyridin-2-yl)vinyl]-2-isopropylbenzene-1,3-diol] |  |  |  |  | 98.70 | 95.84 | 91.56 | 89.57 | 30
CC(C)c1c(O)cc(/C=C/c2ncccc2Cl)c(F)c1O [Compound 8, (E)-5-[2-(3-Chloropyridin-2-yl)vinyl]-4-fluoro-2-isopropylbenzene-1,3-diol] |  |  |  |  |  |  |  |  | 13
CC(C)c1c(O)cc(/C=C/c2ccc(F)cn2)c(F)c1O [Compound 9, (E)-4-Fluoro-5-[2-(5-fluoropyridin-2-yl)vinyl]-2-isopropylbenzene-1,3-diol] |  |  |  |  | 99.46 | 98.65 | 97.46 | 92.06 | 20
CC(C)c1c(O)cc(/C=C/c2cccc(F)n2)c(F)c1O [Compound 14, (E)-4-Fluoro-5-[2-(6-fluoropyridin-2-yl)vinyl]-2-isopropylbenzene-1,3-diol] |  |  |  |  | 88.32 | 87.83 | 88.31 | 84.37 | 27
CC(C)c1c(O)cc(/C=C/c2ccncc2)c(F)c1O [Compound 18, (E)-4-Fluoro-2-isopropyl-5-[2-(pyridin-4-yl)vinyl]benzene-1,3-diol] |  |  |  |  |  |  |  |  | 66
(E)-4-Fluoro-2-isopropyl-5-[2-(pyridin-2-yl)vinyl]benzene-1,3-diol [Compound 16] |  |  |  |  | 97.58 | 97.52 | 96.88 | 96.81 | 
